According to patent publication US12054752B2, “HLA-A2 subtype-specific PLK1-derived epitope inducing antigen-specific t cell immune response to PLK1 protein” (THE CATHOLIC UNIVERSITY OF KOREA INDUSTRY-ACADEMIC …, priority 2017, dated 2024):

Tests used:
[1] = system: T2 cell lines expressing HLA-A2 molecules; assay: IFN-γ EliSpot of spleen CD8+T cells from mice electroporated with multi-epitope PLK1 recombinant DNA, against T2 cells sensitized with each epitope peptide; type: cell-based, HLA-A2 transgenic mice; conditions: CD8+T cells of spleens after electroporation with PLKWT / PLKOPT recombinant DNA 3 times at 7-day intervals, FIGS. 2A and 2B
Source text: FIGS. 2A and 2B illustrate the EliSpot results confirming immune responses occurring in the spleen after HLA-A2 transgenic mice are subjected to electroporation with a recombinant DNA (FIG. 2A) including multiple wild-type PLK1 epitopes and a recombinant DNA (FIG. 2B) including multiple PLK1 epitopes optimized for recombination.
In order to use a DNA-based vaccination strategy inducing multi-epitope-specific T cell immune responses, an amino acid sequence of the predicted PLK1-derived HLA-A2 multi-epitope was linked to a furin-sensitive linker (SGSG) amino acid sensitive to a proteolytic enzyme of the Golgi apparatus and cloned into a pCI expression vector (see FIG. 1).
Recombinant DNA, PLKWT and PLKOPT were transfected into HLA-A2 transgenic mice and biological electric shock therapy was performed at 95 V (4×65 ms pulses with repoling) using an Electro square wave electroporation device (ECM830; BTX; San Diego, CA). After the biological electric shock therapy was performed 3 times at 7-day intervals, CD8+T cells of mouse spleens were isolated. IFN-γ EliSpot was performed by sensitizing T2 cell lines expressing HLA-A2 molecules with each predicted epitope peptide and using T2 cell lines as a target cell.

[2] = system: CD8+T cells; assay: Flow cytometry of spleen CD8+T cells expressing IFN-γ and CD107a/b after dendritic cell vaccination and peptide-based TriVax vaccination; type: in vivo, HLA-A2 transgenic mice; conditions: spleen T cells cultured with PLK1 antigen; compared to the groups using PLK1477 and PLK1541 antigen-peptides; FIG. 3
Source text: FIG. 3 illustrates flow cytometry analysis results confirming CD8+T cell immune responses of PLK1123 (SDFVFVVLEL, SEQ ID NO: 1), PLK1477 (TLLKYFRNYM, SEQ ID NO: 2), and PLK1541/21 (LILCPLMAAV, SEQ ID NO: 3) among PLK-1-derived epitope candidates specific for HLA-A2 with CD107a/b.
Next, HLA-A2-binding PLK1123 (SDFVFVVLEL, SEQ ID NO: 1), PLK1477 (TLLKYFRNYM, SEQ ID NO: 2), and PLK1541 (LILCPLMAAV, SEQ ID NO: 3) peptides confirmed as dominant epitopes were selected in a multi-epitope DNA-based vaccination experiment in the HLA-A2 transgenic mice, and immunized into the HLA-As transgenic mice by a dendritic cell vaccination and peptide-based TriVax vaccination (CD40 antibody/Poly-IC/epitope) strategy. After an immune response to each epitope-peptide was induced through this, T cells of the spleens were obtained and each cultured with a PLK1 antigen, and then CD8+T cells expressing IFN-γ and CD107a/b were confirmed using flow cytometry.

[3] = system: T2 cell lines and HLA-A2 positive tumor cells; assay: IFN-γ EliSpot of CD8+T cells from peptide-immunized mice against peptide-sensitized T2 cells and tumor cells; type: in vivo, HLA-A2 transgenic mice; conditions: targets CCRF-SB, THP-1, SKM-1, SK-MEL-5 (HLA-A2 positive), HL-60 and SK-MEL-3 (HLA-A2 negative), FIG. 4A to 4C
Source text: FIG. 4A to 4C illustrate the EliSpot results confirming immune responses occurring by immunization of HLA-A2 transgenic mice with PLK1123 (SDFVFVVLEL, SEQ ID NO: 1)(FIG. 4A), PLK1477 (TLLKYFRNYM, SEQ ID NO: 2)(FIG. 4B), and PLK1541/21 (LILCPLMAAV, SEQ ID NO: 3)(FIG. 4C) among PLK1-derived epitope candidates specific for HLA-2 by a dendritic cell vaccination and peptide-based vaccination strategy.
In order to examine CD8+T cell immune responses, an immune response occurring in the spleen was confirmed by immunization into HLA-A2 transgenic mice by a dendritic cell vaccination and peptide-based vaccination strategy. For this purpose, HLA-A2-binding PLK1123 ([…], SEQ ID NO: 1), PLK1477 (TLLKYFRNYM, SEQ ID NO: 2), and PLK1541 (LILCPLMAAV, SEQ ID NO: 3) peptides confirmed as dominant epitopes were selected in a multi-epitope DNA-based vaccination experiment in the HLA-A2 transgenic mice, and immunized into the HLA-As transgenic mice by a dendritic cell vaccination and peptide-based TriVax vaccination (CD40 antibody/Poly-IC/epitope) strategy. After an immune response to each epitope-peptide was induced through this, CD8+T cells were obtained by antibody-binding magnetic cell sorting, and used as effector cells for confirming an antigen-specific T cell response. […]

## ILCPLMAAV (Human Polo-like kinase-1) [PLK1542]
[1]
  ability to produce IFN-γ by the activation of CD8+T cells for T2 cell lines sensitized with each epitope peptide: high levels

## LILCPLMAAV (Human Polo-like kinase-1) [PLK1541 21]
[1]
  ability to produce IFN-γ by the activation of CD8+T cells for T2 cell lines sensitized with each epitope peptide: high levels

## SDFVFVVLEL (Human Polo-like kinase-1) [PLK1123]
[1]
  ability to produce IFN-γ by the activation of CD8+T cells for T2 cell lines sensitized with each epitope peptide: high levels
[2]
  rate of antigen-specific CD8+T cells (IFN-γ and CD107a/b): relatively high rate
[3]
  CD8+T cell responses specific for T2 cell lines and HLA-A2 positive tumor cells sensitized with PLK1-derived antigen-peptides: observed

## TLLKYFRNYM (Human Polo-like kinase-1) [PLK1477]
[1]
  ability to produce IFN-γ by the activation of CD8+T cells for T2 cell lines sensitized with each epitope peptide: high levels
